Target: FmlH (Escherichia coli, UniProt A0A0H2V7F6)
Assay: solution binding study

## OC[C@H]1OC(O)[C@H](O)[C@@H](O)[C@H]1O (stereo partly drawn) [D-Gal]
  Kd: 625 µM

Reference: article PMC5294914 (Cell host & microbe, 2016)
